Assay results: PubChem BioAssay AID256 (DTP/NCI, 2004)
Several values for one entry are separate records, joined by “and”; a condition that tells them apart may be missing. Equal entries are not always repeated. Toxic doses and inconclusive results are not listed.

System: CD2F1 mice, L1210 leukemia ip, survival T/C
Test: NCI In Vivo Anticancer Drug Screen. Data for tumor model L1210 Leukemia (intraperitoneal) in CD2F1 (CDF1) mice
Conditions: higher = longer survival
In short: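 Transplantable tumor in mice; compound-treated vs vehicle-treated groups. Read-out = treated/control ratio of the measured endpoint.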

[1] = endpoint: mean survival time, dose: 100.0 mg/kg/injection, schedule: Q04DX003 (ip), vehicle: saline with Tween-80
[2] = endpoint: mean survival time, dose: 200.0 mg/kg/injection, schedule: Q04DX003 (ip), vehicle: saline with Tween-80
[3] = endpoint: mean survival time, dose: 400.0 mg/kg/injection, schedule: Q04DX003 (ip), vehicle: saline with Tween-80
[4] = endpoint: mean survival time, dose: 200.0 mg/kg/injection, schedule: Q04DX002 (ip), vehicle: saline
[5] = endpoint: mean survival time, dose: 400.0 mg/kg/injection, schedule: Q04DX002 (ip), vehicle: saline
[6] = endpoint: mean survival time, dose: 50.0 mg/kg/injection, schedule: Q01DX009 (ip), vehicle: saline with Tween-80
[7] = endpoint: mean survival time, dose: 100.0 mg/kg/injection, schedule: Q01DX009 (ip), vehicle: saline with Tween-80
[8] = endpoint: mean survival time, dose: 100.0 mg/kg/injection, schedule: Q01DX001 (ip), vehicle: saline with Tween-80
[9] = endpoint: mean survival time, dose: 200.0 mg/kg/injection, schedule: Q01DX001 (ip), vehicle: saline with Tween-80
[10] = endpoint: mean survival time, dose: 100.0 mg/kg/injection, schedule: Q01DX009 (ip), vehicle: Klucel (hydroxypropylcellulose) (HPC)
[11] = endpoint: mean survival time, dose: 200.0 mg/kg/injection, schedule: Q01DX009 (ip), vehicle: Klucel (hydroxypropylcellulose) (HPC)
[12] = endpoint: mean survival time, dose: 50.0 mg/kg/injection, schedule: Q01DX009 (ip), vehicle: Klucel (hydroxypropylcellulose) (HPC)
[13] = endpoint: mean survival time, dose: 100.0 mg/kg/injection, schedule: Q04DX002 (ip), vehicle: saline with Tween-80
[14] = endpoint: mean survival time, dose: 400.0 mg/kg/injection, schedule: Q04DX002 (ip), vehicle: saline with Tween-80
[15] = endpoint: mean survival time, dose: 400.0 mg/kg/injection, schedule: Q01DX001 (ip), vehicle: saline with Tween-80

ClC1(Cl)OC(Cl)(Cl)C(Cl)(Cl)OC1(Cl)Cl
T/C (endpoint: mean survival time, dose: 50.0 mg/kg/injection, schedule: Q04DX003 (ip), vehicle: other): 95 % of control
T/C (endpoint: mean survival time, dose: 100.0 mg/kg/injection, schedule: Q04DX003 (ip), vehicle: other): 91 % of control
T/C (endpoint: mean survival time, dose: 200.0 mg/kg/injection, schedule: Q04DX003 (ip), vehicle: other): 97 % of control

CCCCCCCCCCCCNC(=O)c1cc[n+](Cc2ccc(Cl)c(Cl)c2)cc1
T/C [1]: 103 % of control
T/C [2]: 96 % of control
T/C [3]: 94 % of control

CCC[CH2][Sn]1([CH2]CCC)[O]c2ccccc2[O]1
T/C (endpoint: mean survival time, dose: 1.56 mg/kg/injection, schedule: Q04DX002 (ip), vehicle: saline with Tween-80): 100 % of control
T/C (endpoint: mean survival time, dose: 3.12 mg/kg/injection, schedule: Q04DX002 (ip), vehicle: saline with Tween-80): 96 % of control
T/C (endpoint: mean survival time, dose: 6.25 mg/kg/injection, schedule: Q04DX002 (ip), vehicle: saline with Tween-80): 98 % of control
T/C (endpoint: mean survival time, dose: 12.5 mg/kg/injection, schedule: Q04DX002 (ip), vehicle: saline with Tween-80): 113 % of control

C=C(NC(=O)C(=C)NC(=O)c1csc(C2=NC3c4csc(n4)C4NC(=O)c5csc(n5)C(C(C)(O)C(C)O)NC(=O)C5CSC(=N5)/C(=C/C)NC(=O)C(C(C)O)NC(=O)c5csc(n5)C3(CC2)NC(=O)C(C)NC(=O)C(=C)NC(=O)C(=C)NC(=O)C(C(C)C)NC2C=Cc3c(C(C)O)cc(nc3C2O)C(=O)OC4C)n1)C(N)=O (stereo not given)
T/C (endpoint: mean survival time, dose: 3.12 mg/kg/injection, schedule: Q01DX009 (ip), vehicle: saline): 107 % of control
T/C (endpoint: mean survival time, dose: 6.25 mg/kg/injection, schedule: Q01DX009 (ip), vehicle: saline): 113 % of control
T/C (endpoint: mean survival time, dose: 12.5 mg/kg/injection, schedule: Q01DX009 (ip), vehicle: saline): 124 % of control and 108 % of control
T/C (endpoint: mean survival time, dose: 25.0 mg/kg/injection, schedule: Q01DX009 (ip), vehicle: saline): 113 % of control and 115 % of control
T/C (endpoint: mean survival time, dose: 50.0 mg/kg/injection, schedule: Q01DX009 (ip), vehicle: saline): 120 % of control
T/C (endpoint: mean survival time, dose: 100.0 mg/kg/injection, schedule: Q01DX009 (ip), vehicle: saline): 113 % of control and 124 % of control
T/C (endpoint: mean survival time, dose: 200.0 mg/kg/injection, schedule: Q01DX009 (ip), vehicle: saline): 124 % of control and 108 % of control

Nc1nc(=O)n(C2OC(CO)C(O)C2F)cc1I (stereo not given)
T/C (endpoint: median survival time, dose: 12.5 mg/kg/injection, schedule: Q01DX005 (ip), vehicle: saline): 103 % of control
T/C (endpoint: median survival time, dose: 25.0 mg/kg/injection, schedule: Q01DX005 (ip), vehicle: saline): 102 % of control
T/C (endpoint: median survival time, dose: 50.0 mg/kg/injection, schedule: Q01DX005 (ip), vehicle: saline): 104 % of control
T/C (endpoint: median survival time, dose: 100.0 mg/kg/injection, schedule: Q01DX005 (ip), vehicle: saline): 97 % of control
T/C (endpoint: median survival time, dose: 200.0 mg/kg/injection, schedule: Q01DX005 (ip), vehicle: saline): 103 % of control

CC1NC(=O)OC1(C)C(C)(C)C (stereo not given)
T/C (endpoint: mean survival time, dose: 5.0 mg/kg/injection, schedule: Q01DX009 (ip), vehicle: saline with Tween-80): 94 % of control
T/C (endpoint: mean survival time, dose: 10.0 mg/kg/injection, schedule: Q01DX009 (ip), vehicle: saline with Tween-80): 104 % of control
T/C (endpoint: mean survival time, dose: 20.0 mg/kg/injection, schedule: Q01DX009 (ip), vehicle: saline with Tween-80): 102 % of control

COc1ccc(Br)cc1C1OC(=O)c2c(OC)c(OC)cc(N)c21 (stereo not given)
T/C [1]: 98 % of control
T/C [2]: 92 % of control
T/C [3]: 88 % of control

[Co].[NH-]CC[NH-].[NH-]CC[NH-].[NH-]CC[S-]
T/C (endpoint: mean survival time, dose: 100.0 mg/kg/injection, schedule: Q04DX002 (ip), vehicle: saline): 112 % of control
T/C [4]: 101 % of control
T/C [5]: 104 % of control

O=C(Nc1ccc2cc(S(=O)(=O)O)ccc2c1)c1ccc(N=Nc2c(S(=O)(=O)O)cc3cc(S(=O)(=O)O)cc(NC(=O)c4ccccc4)c3c2O)cc1
T/C [6]: 96 % of control
T/C [7]: 101 % of control

c1cc(C[N+]23CN4CN(CN(C4)C2)C3)cs1
T/C [1]: 91 % of control

OCC(O)C(O)C(OC1OC(CO)C(O)C(O)C1O)C(O)CO (stereo not given)
T/C [6]: 97 % of control
T/C [7]: 109 % of control
T/C (endpoint: mean survival time, dose: 200.0 mg/kg/injection, schedule: Q01DX009 (ip), vehicle: saline with Tween-80): 106 % of control

Nc1c(O)cc(S(=O)(=O)O)c2ccccc12
T/C (endpoint: mean survival time, dose: 25.0 mg/kg/injection, schedule: Q04DX003 (ip), vehicle: saline): 95 % of control
T/C (endpoint: mean survival time, dose: 50.0 mg/kg/injection, schedule: Q04DX003 (ip), vehicle: saline): 103 % of control
T/C (endpoint: mean survival time, dose: 100.0 mg/kg/injection, schedule: Q04DX003 (ip), vehicle: saline): 109 % of control

O=C1C2C3CCC(CC3)C2C(=O)C2C3CCC(C3)C12 (stereo not given)
T/C [1]: 100 % of control
T/C [2]: 92 % of control
T/C [3]: 88 % of control

COc1ccc(NC(=O)NCCCl)cc1
T/C [8]: 90 % of control
T/C [9]: 94 % of control

COc1cc(OC)c(OC)cc1/C=C/c1ccc2ccccc2n1
T/C [1]: 92 % of control
T/C [2]: 96 % of control
T/C [3]: 96 % of control

CCOC(=O)C1(C(=O)OCC)CCC(O)N1C(=O)Cc1ccccc1[N+](=O)[O-] (stereo not given)
T/C [10]: 101 % of control
T/C [11]: 97 % of control

Cc1ccc(C(C)(C)C[P+](C)(c2ccccc2)c2ccccc2)cc1
T/C [12]: 100 % of control
T/C [10]: 102 % of control

COc1ccc(CCN2CC34C=CC(O3)C(C(=O)O)C4C2=O)cc1OCc1ccccc1 (stereo not given)
T/C [13]: 95 % of control
T/C (endpoint: mean survival time, dose: 200.0 mg/kg/injection, schedule: Q04DX002 (ip), vehicle: saline with Tween-80): 95 % of control
T/C [14]: 95 % of control

CC[NH-].[Cl][Pt+2][Cl].[NH2-]
T/C (endpoint: mean survival time, dose: 1.56 mg/kg/injection, schedule: Q04DX003 (ip), vehicle: water): 118 % of control
T/C (endpoint: mean survival time, dose: 3.13 mg/kg/injection, schedule: Q04DX003 (ip), vehicle: distilled water + Tween-80): 119 % of control
T/C (endpoint: mean survival time, dose: 6.25 mg/kg/injection, schedule: Q04DX003 (ip), vehicle: water): 124 % of control
T/C (endpoint: mean survival time, dose: 25.0 mg/kg/injection, schedule: Q04DX003 (ip), vehicle: distilled water + Tween-80): 98 % of control

Cc1c(N=Nc2cc[n+]([O-])cc2)ccc(N(C)C)c1C
T/C [1]: 102 % of control
T/C [2]: 97 % of control

O=c1ccocc1O
T/C [4]: 95 % of control
T/C [5]: 92 % of control

O=c1ssc(=Nc2ccccc2)n1-c1ccccc1
T/C (endpoint: mean survival time, dose: 12.5 mg/kg/injection, schedule: Q01DX009 (ip), vehicle: Klucel (hydroxypropylcellulose) (HPC)): 103 % of control
T/C (endpoint: mean survival time, dose: 25.0 mg/kg/injection, schedule: Q01DX009 (ip), vehicle: Klucel (hydroxypropylcellulose) (HPC)): 93 % of control and 102 % of control
T/C [12]: 98 % of control and 110 % of control
T/C [10]: 103 % of control and 108 % of control
T/C [11]: 98 % of control and 102 % of control
T/C (endpoint: mean survival time, dose: 400.0 mg/kg/injection, schedule: Q01DX009 (ip), vehicle: Klucel (hydroxypropylcellulose) (HPC)): 117 % of control and 104 % of control

CCNc1ncc2ccccc2c1-c1ccc(N2CCN(CCCl)CC2)cc1
T/C (endpoint: mean survival time, dose: 25.0 mg/kg/injection, schedule: Q04DX003 (ip), vehicle: saline + alcohol): 111 % of control
T/C (endpoint: mean survival time, dose: 50.0 mg/kg/injection, schedule: Q04DX003 (ip), vehicle: saline + alcohol): 102 % of control
T/C (endpoint: mean survival time, dose: 100.0 mg/kg/injection, schedule: Q04DX003 (ip), vehicle: saline + alcohol): 102 % of control
T/C (endpoint: mean survival time, dose: 200.0 mg/kg/injection, schedule: Q04DX003 (ip), vehicle: saline + alcohol): 111 % of control

CC(=Nc1ccccc1)C1=C(O)C(Cc2cccc(F)c2)NC1=O (stereo not given)
T/C [13]: 116 % of control
T/C [14]: 103 % of control

O=S(=O)(NCCNS(=O)(=O)c1ccccc1)c1ccccc1
T/C [8]: 110 % of control
T/C [9]: 95 % of control
T/C [15]: 100 % of control

CN(C)N=Nc1ccccc1C(N)=O
T/C (endpoint: mean survival time, dose: 18.8 mg/kg/injection, schedule: Q01DX009 (ip), vehicle: Klucel (hydroxypropylcellulose) (HPC)): 106 % of control
T/C (endpoint: mean survival time, dose: 37.5 mg/kg/injection, schedule: Q01DX009 (ip), vehicle: Klucel (hydroxypropylcellulose) (HPC)): 117 % of control and 106 % of control
T/C (endpoint: mean survival time, dose: 75.0 mg/kg/injection, schedule: Q01DX009 (ip), vehicle: Klucel (hydroxypropylcellulose) (HPC)): 116 % of control and 123 % of control
T/C [10]: 151 % of control
T/C (endpoint: mean survival time, dose: 150.0 mg/kg/injection, schedule: Q01DX009 (ip), vehicle: Klucel (hydroxypropylcellulose) (HPC)): 123 % of control and 86 % of control and 101 % of control

NC(=S)N/N=C\c1nccc2c(N)cccc12
T/C (endpoint: mean survival time, dose: 12.5 mg/kg/injection, schedule: Q01DX009 (ip), vehicle: saline with Tween-80): 124 % of control
T/C (endpoint: mean survival time, dose: 25.0 mg/kg/injection, schedule: Q01DX009 (ip), vehicle: saline with Tween-80): 124 % of control
T/C [6]: 161 % of control
T/C (endpoint: mean survival time, dose: 75.0 mg/kg/injection, schedule: Q01DX009 (ip), vehicle: saline with Tween-80): 121 % of control and 124 % of control

c1ccc2c(c1)CC1Nc3ccccc3C21 (stereo not given)
T/C [8]: 97 % of control
T/C [9]: 97 % of control
T/C [15]: 96 % of control
